Measured values as given in patent US11252960B2 (KIMBERLY-CLARK WORLDWIDE, INC., priority 2017, dated 2022).

Experiments:
[1] = Determination of Dissociation Constant (pKa) by Potentiometric Titration Method; type: physicochemical; details: ultrapure water, 22° C.
Description: Potentiometric Titration Method: A calibrated pH meter was used for the assay. 50 mL solution of each test/reference item solution (0.1 mg/mL) was added to four beakers (two for acid titration and two for base titration). 0.1 N Sodium hydroxide (NaOH) solution was prepared as titrant solution. The pH electrode was placed into the beaker containing test/reference item solution. The initial pH of the solution will be recorded. 100 μL of 0.1 N NaOH was added successively with stirring and the pH at each addition was recorded. Base titrations were carried out individually in duplicates until a sudden shift in the pH was observed.

[2] = type: physicochemical; details: pH 4.5
Description: This water was used as a test media for determining the solubility of test/reference items. Stock solutions of concentration 1 mg/mL for test items/reference items was prepared in methanol. The stock solution will be used for preparation of calibration curve standards. Calibration curve of test/reference items was prepared by serially dilution consisting of 4-5-6 concentrations in 96 well format. […] The method was as follows: Calibration curve of test items were prepared by serial dilution consisting of 8 concentrations. […] Water, 50:50). […] 40 mg of test items were weighed into tubes. […] The initial pH of the solubility samples were recorded. […] Then, the solutions were observed visually for any precipitation. […] An aliquot of the supernatant were diluted with equal volume of methanol. […] The samples were then transferred to UV plate and scanned at λmax of that particular test/reference item. Compound #12 was transferred to auto-sampler vials and submitted for LC-MS/MS analysis.

[3] = system: Burkholderia cepacia (ATCC 25416); test: Anti-bacterial Minimum Inhibitory Concentration (MIC) Method, microbroth dilution; type: cell-based; details: CAMHB, 37° C., 24 hours, pH 4.5-adjusted stock
Description: (§1) Anti-Bacterial and Anti-Fungal Minimum Inhibitory Concentration (MIC) Method Method: Microbroth Dilution Method (96-well format). Test item: […] Solvent: Sterile MilliQ water and 0.1 M Citrate Buffer pH 4.5 Media used: • Bacterial: Cation-Adjusted Mueller-Hinton Broth (CAMHB) • Fungi: RPMI-1640 […] Fungi: • Incubation Temperature: • 25° C. (Candida albicans) • 35° C. (Aspergillus brasiliensis) • Incubation Time: 48 hours • Inoculum Size: 5×10^4 cfu/mL • Strains: • Candida albicans (ATCC 10231) • Aspergillus brasiliensis (ATCC 16404) • End point: Inhibition of growth, Spectrophotometer Reading @ 600 nm • Reference standards: […] All solubilized and pH 4.5-adjusted test compounds were filter-sterilized before subjecting to MIC study. […] All the strains were inoculated on their respective agar medium and incubated under conditions/durations detailed above. • Preparation of inoculum: • The bacterial colony suspension in 0.85% saline was adjusted to 1 McFarland's standard using […] which was further diluted to 1:100 in CAMHB. The fungal suspension for inoculation was prepared in 0.85% saline from 6 days old culture (for mold, A. brasiliensis) and from 2 days old culture (for yeast, C. albicans) from Sabouraud Dextrose agar medium. […] Micro titer plates were prepared as per the CLSI recommendations. One hundred and seventy five microliters of Cation-adjusted Muller Hinton Broth (CAMHB) was added to the first column of a 96 well flat bottom plate, which is the media control. Second column is for the stocks of the test compounds and reference standards from which dilutions are made. Then 175 μL of CAMHB was added to the 5th, 8th and 11th columns, 75 μL of CAMHB to the 4th, 7th and 10th columns and 50 μL of CAMHB to the 3rd, 6th and 9th columns and the last column was the organism control.

[4] = system: Escherichia coli (ATCC 8739); test: as above; type: cell-based; details: CAMHB, 37° C., 24 hours, pH 4.5-adjusted stock
Description: as §1

[5] = system: Pseudomonas aeruginosa (ATCC 9027); test: as above; type: cell-based; details: CAMHB, 37° C., 24 hours, pH 4.5-adjusted stock
Description: as §1

[6] = system: Staphylococcus aureus (ATCC 6538); test: as above; type: cell-based; details: CAMHB, 37° C., 24 hours, pH 4.5-adjusted stock
Description: as §1

[7] = system: Candida albicans (ATCC 10231); test: Anti-fungal Minimum Inhibitory Concentration (MIC) Method, microbroth dilution; type: cell-based; details: RPMI-1640, 25° C., 48 hours, pH 4.5-adjusted stock
Description: (§2) Anti-Bacterial and Anti-Fungal Minimum Inhibitory Concentration (MIC) Method Method: Microbroth Dilution Method (96-well format). Test item: […] Solvent: Sterile MilliQ water and 0.1 M Citrate Buffer pH 4.5 Media used: • Bacterial: Cation-Adjusted Mueller-Hinton Broth (CAMHB) • Fungi: RPMI-1640 Fungi: • Incubation Temperature: • 25° C. (Candida albicans) • 35° C. (Aspergillus brasiliensis) • Incubation Time: 48 hours • Inoculum Size: 5×10^4 cfu/mL • Strains: • Candida albicans (ATCC 10231) • Aspergillus brasiliensis (ATCC 16404) • End point: Inhibition of growth, Spectrophotometer Reading @ 600 nm • Reference standards: […] All solubilized and pH 4.5-adjusted test compounds were filter-sterilized before subjecting to MIC study. […] All the strains were inoculated on their respective agar medium and incubated under conditions/durations detailed above. • Preparation of inoculum: • The bacterial colony suspension in 0.85% saline was adjusted to 1 McFarland's standard using […] which was further diluted to 1:100 in CAMHB. The fungal suspension for inoculation was prepared in 0.85% saline from 6 days old culture (for mold, A. brasiliensis) and from 2 days old culture (for yeast, C. albicans) from Sabouraud Dextrose agar medium. […] Micro titer plates were prepared as per the CLSI recommendations. One hundred and seventy five microliters of Cation-adjusted Muller Hinton Broth (CAMHB) was added to the first column of a 96 well flat bottom plate, which is the media control. Second column is for the stocks of the test compounds and reference standards from which dilutions are made. Then 175 μL of CAMHB was added to the 5th, 8th and 11th columns, 75 μL of CAMHB to the 4th, 7th and 10th columns and 50 μL of CAMHB to the 3rd, 6th and 9th columns and the last column was the organism control.

[8] = system: Aspergillus brasiliensis (ATCC 16404); test: as above; type: cell-based; details: RPMI-1640, 35° C., 48 hours, pH 4.5-adjusted stock
Description: as §2

Compound: O=C(O)c1ccc(OCCO)cc1 [Compound 1, 4-(2-hydroxyethoxy) benzoic acid]
- pKa ([1]; pH 4.5, Table 1, 0.1 mg/ml): 4.95
- Solubility (wt %) [2]: 0.2779 wt %
- MIC (%) B. cepacia ([3]; Table 1): 0.082%
- MIC (%) E. coli ([4]; Table 1): 0.165%
- MIC (%) P. aeruginosa ([5]; Table 1): 0.082%
- MIC (%) S. Aureus ([6]; Table 1): 0.041%
- MIC (%) C. albicans ([7]; Table 1): >0.165%
- MIC (%) A. brasiliensis ([8]; Table 1): >0.165%

Compound: O=C(O)c1ccc(OCC(O)CO)cc1 (stereo not drawn) [Compound 2, 4-(2,3-dihydroxypropoxy) benzoic acid]
- pKa ([1]; pH 4.5, Table 1, 0.1 mg/ml): 4.6
- Solubility (wt %) [2]: 0.343 wt %
- MIC (%) B. cepacia ([3]; Table 1): 0.09%
- MIC (%) E. coli ([4]; Table 1): 0.181%
- MIC (%) P. aeruginosa ([5]; Table 1): 0.09%
- MIC (%) S. Aureus ([6]; Table 1): 0.045%
- MIC (%) C. albicans ([7]; Table 1): >0.181%
- MIC (%) A. brasiliensis ([8]; Table 1): >0.181%

Compound: O=C(O)c1ccc(O[C@@H]2O[C@H](CO)[C@H](O)[C@H](O)[C@H]2O)cc1 [Compound 3, 4-{[(3R,4S,5R,6R)-3,4,5-trihydroxy-6-(hydroxymethyl)oxan-2-yl]oxy}benzoic acid]
- pKa ([1]; pH 4.5, Table 1, 0.1 mg/ml): 4.5
- MIC (%) B. cepacia ([3]; Table 1): >0.87%
- MIC (%) B. cepacia ([3]; Table 1, listed as #3): > 0.87%
- MIC (%) E. coli ([4]; Table 1): >0.87%
- MIC (%) E. coli ([4]; Table 1, listed as #3): > 0.87%
- MIC (%) P. aeruginosa ([5]; Table 1): >0.87%
- MIC (%) P. aeruginosa ([5]; Table 1, listed as #3): > 0.87%
- MIC (%) S. Aureus ([6]; Table 1): >0.87%
- MIC (%) S. Aureus ([6]; Table 1, listed as #3): > 0.87%
- MIC (%) C. albicans ([7]; Table 1): >0.87%
- MIC (%) C. albicans ([7]; Table 1, listed as #3): > 0.87%
- MIC (%) A. brasiliensis ([8]; Table 1): >0.87%
- MIC (%) A. brasiliensis ([8]; Table 1, listed as #3): > 0.87%

Compound: O=C(O)c1ccc(OC2OC(CO)C(O)C2O)cc1 (stereo not drawn) [Compound 4, 4-{[3,4-dihydroxy-5-(hydroxymethyl)oxolan-2-yl]oxy}benzoic acid]
- pKa ([1]; pH 4.5, Table 1, 0.1 mg/ml): 4.6
- Solubility (wt %) [2]: >1.00 wt %
- MIC (%) B. cepacia ([3]; Table 1): 0.25%
- MIC (%) E. coli ([4]; Table 1): 1%
- MIC (%) P. aeruginosa ([5]; Table 1): 0.5%
- MIC (%) S. Aureus ([6]; Table 1): 0.125%
- MIC (%) C. albicans ([7]; Table 1): >1%
- MIC (%) A. brasiliensis ([8]; Table 1): >1%

Compound: O=C(O)c1ccc(OC2CC(O)C(CO)O2)cc1 (stereo not drawn) [Compound 5, 4-{[4-hydroxy-5-(hydroxymethyl)oxolan-2-yl]oxy}benzoic acid]
- pKa ([1]; pH 4.5, Table 1, 0.1 mg/ml): 5.6
- Solubility (wt %) [2]: 0.11 wt %
- MIC (%) B. cepacia ([3]; Table 1): 0.034%
- MIC (%) E. coli ([4]; Table 1): >0.069%
- MIC (%) P. aeruginosa ([5]; Table 1): 0.034%
- MIC (%) S. Aureus ([6]; Table 1): 0.017%
- MIC (%) C. albicans ([7]; Table 1): >0.069%
- MIC (%) A. brasiliensis ([8]; Table 1): >0.069%

Compound: O=C(O)c1ccc(OCCCCO)cc1 [Compound 6, 4-(4-hydroxybutoxy) benzoic acid]
- pKa ([1]; pH 4.5, Table 1, 0.1 mg/ml): 4.6
- Solubility (wt %) [2]: 0.0667 wt %
- MIC (%) B. cepacia ([3]; Table 1): 0.02%
- MIC (%) E. coli ([4]; Table 1): 0.04%
- MIC (%) P. aeruginosa ([5]; Table 1): 0.04%
- MIC (%) S. Aureus ([6]; Table 1): 0.01%
- MIC (%) C. albicans ([7]; Table 1): >0.04%
- MIC (%) A. brasiliensis ([8]; Table 1): >0.04%

Compound: CC(O)COc1ccc(C(=O)O)cc1 (stereo not drawn) [Compound 7, 4-(2-hydroxypropoxy) benzoic acid]
- pKa ([1]; pH 4.5, Table 1, 0.1 mg/ml): 5.6
- Solubility (wt %) [2]: 0.123 wt %
- MIC (%) B. cepacia ([3]; Table 1): 0.02%
- MIC (%) E. coli ([4]; Table 1): 0.079%
- MIC (%) P. aeruginosa ([5]; Table 1): 0.039%
- MIC (%) S. Aureus ([6]; Table 1): 0.02%
- MIC (%) C. albicans ([7]; Table 1): >0.079%
- MIC (%) A. brasiliensis ([8]; Table 1): >0.079%

Compound: O=C(OCCO)c1ccccc1 [Compound 8, Benzoic acid 2-hydroxyethyl ester]
- pKa ([1]; pH 4.5, Table 3, 0.1 mg/ml): > 7
- Solubility (wt %) [2]: >1.0 wt %
- MIC (%) B. cepacia ([3]; Table 4): 0.118%
- MIC (%) E. coli ([4]; Table 4): 0.475%
- MIC (%) P. aeruginosa ([5]; Table 4): 0.237%
- MIC (%) S. Aureus ([6]; Table 4): 0.475%
- MIC (%) C. albicans ([7]; Table 4): 0.475%
- MIC (%) A. brasiliensis ([8]; Table 4): 0.118%

Compound: benzoic acid [reference compound]
- MIC (%) B. cepacia ([3]; Table 1): 0.034%
- MIC (%) B. cepacia ([3]; Table 4): 0.034%
- MIC (%) E. coli ([4]; Table 1): 0.07%
- MIC (%) E. coli ([4]; Table 4): 0.07%
- MIC (%) P. aeruginosa ([5]; Table 1): 0.068%
- MIC (%) P. aeruginosa ([5]; Table 4): 0.068%
- MIC (%) S. Aureus ([6]; Table 1): 0.068%
- MIC (%) S. Aureus ([6]; Table 4): 0.068%
- MIC (%) C. albicans ([7]; Table 1): 0.137%
- MIC (%) C. albicans ([7]; Table 4): 0.137%
- MIC (%) A. brasiliensis ([8]; Table 1): 0.137%
- MIC (%) A. brasiliensis ([8]; Table 4): 0.137%
